Legend:
[1] = system: P. falciparum male gametocytes; assay: P. falciparum Dual Gamete Formation Assay (PfDGFA), male readout (exflagellation); format: cell-based, Plasmodium falciparum NF54; conditions: for Average inhibition male (%): average of replicates; for % inhibition male (individual replicates) R1: replicate R1; for % inhibition male (individual replicates) R3: replicate R3; for % inhibition male (individual replicates) R4: replicate R4; for Activity: hit = >50% inhibition in male or female readout in at least 3 replicates, 0 = no class assigned
Experimental: (§1) P. falciparum NF54 (originally isolated from an imported malaria case in the Netherlands in the 1980s; BEI Resources, cat. No. MRA-1000) strain asexual parasites were maintained between 0.3–5% parasitaemia by regular passage in complete culture medium (RPMI supplemented with 25 mM HEPES, 50 μg ml^−1 hypoxanthine, 4.8 g l^−1 NaHCO3, 2mM L-glutamine, 5% pooled type AB serum, 0.5% Albumax II (Gibco)) at 4% haematocrit in washed whole blood (National Blood and Transfusion Service or Centro de Transfusiones de la Comunidad de Madrid CTCM) under a 1% O2/3% CO2/96% N2 environment. Gametocytes were induced by seeding culture flasks at 2% parasitaemia/4% haematocrit and subjecting them to daily medium changes for 14 days whilst maintaining a temperature of 37°C at all times. On Day 14, the maturity of gametocytes was assessed by quantifying male gametogenesis (exflagellation). A 20 μl sample of gametocyte culture was mixed with equal volume of ookinete medium (complete culture medium supplemented with 0.1 μM xanthurenic acid) at room temperature and transferred to a haemocytometer. After 20 min at room temperature, exflagellation was accurately quantified as described in Delves et al. 2016 [17].
(§2) The Pf DGFA was performed as described in Delves et al. 2016 [17]. […] Plates were then incubated for 24 h at 37°C in a humidified box under a 1% O2/3% CO2/96% N2 gas mix. Gametogenesis was triggered by addition of 10 μl per well of ookinete medium + 0.27 μg ml^-1 Cy3-labelled anti-Pfs25 antibody. Plates were incubated on a metal block at 4°C for 4 min to ensure even cooling, then 28°C for a further 4 min. Exflagellation was recorded by capturing 10 frames over 1 s under brightfield illumination using a x4 objective with a 1.5x zoom (effectively x6) attached to an automated Nikon Ti fluorescence microscope. After recording exflagellation, plates were incubated for a further 24 h in the dark at 28°C to ensure maximal expression of Pfs25 by female gametes. The plates were then returned to the microscope and female gametes imaged at x6 using fluorescence microscopy.
(§3) Exflagellation centres and female gametes were quantified using custom image analysis pipelines developed within ICY Bioimage Analysis (https://icy.bioimageanalysis.org/).

[2] = system: P. falciparum female gametocytes; assay: P. falciparum Dual Gamete Formation Assay (PfDGFA), female readout (Pfs25-positive female gametes); format: cell-based, Plasmodium falciparum NF54; conditions: for Average inhibition female (%): average of replicates; for % inhibition female (individual replicates) R1: replicate R1; for % inhibition female (individual replicates) R3: replicate R3; for % inhibition female (individual replicates) R4: replicate R4
Experimental: as §1, §2, §3

[3] = 2µM, 24h preincubation with gametocytes prior to induction of gametogenesis
[4] = 2µM, 24h preincubation, hits selected on >50% inhibition in the male readout across replicates
[5] = PfDGFA at 2µM, 24h preincubation
[6] = 2µM, 24h preincubation, hits selected on >50% inhibition in the female readout across replicates
[7] = 2µM, 24h preincubation, number of replicates with >50% inhibition in the male readout
[8] = 2µM, 24h preincubation, number of replicates with >50% inhibition in the female readout
[9] = PfDGFA at 2µM, 24h preincubation with gametocytes

With COc1ccc(CCNCCCCCNCCc2ccc(Cl)cc2)cc1OC.Cl [TCMDC-131269] the “Average inhibition male (%)” value [1, 3] was 50.1%, the “% inhibition male (individual replicates) R1” value [1, 3] was 46.0% and the “% inhibition male (individual replicates) R3” value [1, 3] was 29.0%. The “% inhibition male (individual replicates) R4” value [1, 3] was 62.2%, the HitlevelM [1, 4] was 2 and the Activity [1, 5] was 0. For the same compound, the “Average inhibition female (%)” value [2, 3] was 7.8%, the “% inhibition female (individual replicates) R1” value [2, 3] was 17.8% and the “% inhibition female (individual replicates) R3” value [2, 3] was -21.2%. For the same compound, the “% inhibition female (individual replicates) R4” value [2, 3] was 18.8% and the HitlevelF [2, 6] was 0.

In the case of Br.Oc1ccc(CCNCCCCCCNCCc2ccc(Cl)c3ccccc23)cc1O [TCMDC-131271], the “Average inhibition male (%)” value [1, 3] is reported as 50.9%, the “% inhibition male (individual replicates) R1” value [1, 3] is reported as 51.3% and the “% inhibition male (individual replicates) R3” value [1, 3] is reported as 62.1%. For the same compound, the “% inhibition male (individual replicates) R4” value [1, 3] was 62.3%, the HitlevelM [1, 7] was 3 and the “Average inhibition female (%)” value [2, 3] was 16.5%. For the same compound, the “% inhibition female (individual replicates) R1” value [2, 3] was 16.8%, the “% inhibition female (individual replicates) R3” value [2, 3] was 9.0% and the “% inhibition female (individual replicates) R4” value [2, 3] was 24.5%. The HitlevelF [2, 8] was 0.

COc1ccc(CCNCCCCCCNCCc2ccc(Cl)c(Cl)c2)cc1OC.Cl [TCMDC-131275] was tested, and the “Average inhibition male (%)” value [1, 3] was 39.4%, the “% inhibition male (individual replicates) R1” value [1, 3] was 42.2% and the “% inhibition male (individual replicates) R3” value [1, 3] was 31.4%. The “% inhibition male (individual replicates) R4” value [1, 3] was 46.9%, the HitlevelM [1, 4] was 0 and the Activity [1, 5] was 0. The “Average inhibition female (%)” value [2, 3] was 10.6%, the “% inhibition female (individual replicates) R1” value [2, 3] was 26.6% and the “% inhibition female (individual replicates) R3” value [2, 3] was -14.3%. The “% inhibition female (individual replicates) R4” value [2, 3] was 22.3% and the HitlevelF [2, 6] was 0.

In the case of Br.CC(C)(Cc1ccc(Cl)cc1)NCCCCCCNCCc1ccc(O)c(O)c1 [TCMDC-131277], the “Average inhibition male (%)” value [1, 3] is reported as 21.3%, the “% inhibition male (individual replicates) R1” value [1, 3] is reported as 17.2% and the “% inhibition male (individual replicates) R3” value [1, 3] is reported as 18.9%. The “% inhibition male (individual replicates) R4” value [1, 3] was 31.6%, the HitlevelM [1, 7] was 0 and the “Average inhibition female (%)” value [2, 3] was 25.5%. The “% inhibition female (individual replicates) R1” value [2, 3] was 31.9%, the “% inhibition female (individual replicates) R3” value [2, 3] was 42.8% and the “% inhibition female (individual replicates) R4” value [2, 3] was 1.4%. The HitlevelF [2, 8] was 0.

In the case of COc1ccc(CCNCCCCCCNCCCc2ccc(Cl)cc2)cc1OC.Cl [TCMDC-131280], the “Average inhibition male (%)” value [1, 3] is reported as 28.8%, the “% inhibition male (individual replicates) R1” value [1, 3] is reported as 30.2% and the “% inhibition male (individual replicates) R3” value [1, 3] is reported as 15.3%. The “% inhibition male (individual replicates) R4” value [1, 3] was 32.2%, the HitlevelM [1, 4] was 0 and the Activity [1, 5] was 0. The “Average inhibition female (%)” value [2, 3] was 17.7%, the “% inhibition female (individual replicates) R1” value [2, 3] was 16.6% and the “% inhibition female (individual replicates) R3” value [2, 3] was 13.1%. The “% inhibition female (individual replicates) R4” value [2, 3] was 24.0% and the HitlevelF [2, 6] was 0.

With Br.CCCCc1ccc(CCNCCCCCCNCCc2ccc(O)c(O)c2)cc1 [TCMDC-131281] the “Average inhibition male (%)” value [1, 9] was 80.5%, the “% inhibition male (individual replicates) R1” value [1, 9] was 68.8% and the “% inhibition male (individual replicates) R4” value [1, 9] was 77.5%. For the same compound, the HitlevelM ([1]; number of replicates with >50% inhibition in the male readout, 2µM) was 3, the “Average inhibition female (%)” value [2, 9] was 39.8% and the “% inhibition female (individual replicates) R1” value [2, 9] was 30.3%. The “% inhibition female (individual replicates) R3” value [2, 9] was 35.5%, the “% inhibition female (individual replicates) R4” value [2, 9] was 31.1% and the HitlevelF ([2]; number of replicates with >50% inhibition in the female readout, 2µM) was 1.

COc1cccc(CCNCCCCCCNCCc2ccc(Cl)cc2)c1.Cl [TCMDC-131284] was tested, and the “Average inhibition male (%)” value [1, 3] was 40.5%, the “% inhibition male (individual replicates) R1” value [1, 3] was 42.7% and the “% inhibition male (individual replicates) R3” value [1, 3] was 17.7%. The “% inhibition male (individual replicates) R4” value [1, 3] was 36.9%, the HitlevelM [1, 4] was 1 and the Activity [1, 5] was 0. For the same compound, the “Average inhibition female (%)” value [2, 3] was 15.8%, the “% inhibition female (individual replicates) R1” value [2, 3] was 18.4% and the “% inhibition female (individual replicates) R3” value [2, 3] was 6.6%. The “% inhibition female (individual replicates) R4” value [2, 3] was 6.5% and the HitlevelF [2, 6] was 0.

From publication PMC10584170, “Machine learning-based phenotypic imaging to characterise the targetable biology of Plasmodium falciparum male gametocytes for the development of transmission-blocking antimalarials” (PLOS Pathogens, 2023)
